Data on one compound can be found in US20250154180A1, “CRK-LIKE (CRKL) ADAPTOR PROTEIN INHIBITORS AND METHODS OF MAKING AND USING THE SAME” (Rutgers, The State University of New Jersey, priority 2022, published 2025).

For data set [1], the system named is CrkL phosphorylation by Ab1. The experiment in a line: in vitro kinase assay (CrkL phosphorylation by Ab1, western blot). It counts as biochemical. To be noted: 40 μM candidate drug; compared to Gleevec positive control. As for the experimental part: The expression of both CrkL and phosphor-CrkL in the negative control was arbitrarily set as “1”, and other treatments were relatively compared with the negative control. The pCrkL and CrkL were set as the phosphorylation ratio, while the kinase inhibition efficiency was set as (1−pCrkL/CrkL)×100%.
in vitro Kinase Assay—An in vitro kinase assay was conducted to detect CrkL phosphorylation by Ab1 and to determine whether candidate drugs identified in the AlphaScreen assays could inhibit phosphorylation. […] The pTyr207 antibody detected the level of phosphorylated CrkL. […]
To further verify the pCrkL inhibitor, a kinase assay was designed to evaluate the specificity of positive hits. […] The decreased amount of pCrkL can be detected and quantified by this kinase assay. […]
In total, ten candidate drugs (five that bind to Ab1 and five that bind to CrkL) were verified by the in vitro kinase inhibition assay followed by thermal shift analysis. […] For phosphorylated CrkL detection, only the phosphorylation of Tyr207 was specifically detected by the anti-CrkL phosphorylation antibodies (FIG. 3B). […]

The test system of another data set is BXPC3 tumor. Nature of the data set: PDAC BXPC3 xenograft model. It counts as in vivo, NSG mice. As for the experimental part: For HCC or PDAC xenograft models, NSG mice 8-week-old) were injected subcutaneously with 1×10^6 HepG2 or BXPC3 tumor cells mixed with Matrigel.
To further test whether the tumor growth inhibition effect of NC5 applied to other solid tumors, the HCC-Sk-Hep1cell line and PDAC-BXPC3 cell line xenograft models were used. Subcutaneous injection of 1.5×10^6 SK-Hep1 or BXPC3 cells in NSG mice, Six-ten days after tumor cell injection, the palpable tumor in NSG mice was confirmed.

The test system of another data set is 4T1 breast tumor. Nature of the data set: 4T1-Luc orthotopic syngeneic breast tumor model. It is filed as in vivo, Balb/c mice. The settings on record: 5.0 μg/g oral gavage. The source says: Syngeneic orthotopic 4T1 breast tumor-bearing mouse model was established by inoculating 5×10^4 4T1-Luc cells mixed with Matrigel were into the left inguinal fat pad of Balb/c mice from Jackson Laboratories. This orthotopic syngeneic breast tumor model is a tool for preclinical testing of anti-cancer drugs or immunotherapy that require an intact immune system to elicit activity.
To test the effects of the disclosed compounds on the xenograft mouse models, the HCC-Sk-Hep1 cell line xenograft model in NSG mice and 4T1-Luc orthotopic syngeneic breast tumor model in Balb/c mice was used. After confirming the palpable tumor in NSG or Balb/c mice. […] Compound III is referred to as “NC5-140-1” and Compound I is referred to as “NC5-140-2” in FIGS. 11A-11C.

The nature of data set [2]: Mouse toxicity assays (serum ALT, AST, BUN, creatinine). It counts as in vivo, mice. The settings on record: mouse, in vivo. As for the experimental part: Three mice were treated in each group. Blood samples were collected from every mouse in pre-treatment and post-treatment (20 days), and serum was obtained for alanine aminotransferase (ALT, SGPT, FIG. 12A), aspartate aminotransferase (AST, SGOT, FIG. 12B), blood urea nitrogen (BUN, FIG. 12C), and creatinine (FIG. 12D) tests to monitor liver and kidney toxicity. The normal Reference Ranges for ALT is 17-77 IU/L; AST is 54-298 IU/L; BUN is 18.5-33.3 mg/dL; Cr is 0-0.40 mg/dL.
Mouse toxicity assays—Blood was collected from the submandibular facial vein following IACUC guidelines (CMP, Houston Methodist Research Institute and Rutgers University) before and 20-day after the drug treatment. The Department of Veterinary Medicine & Surgery, MD Anderson Cancer Center, performed the clinical biochemistry and pharmacokinetics tests. Blood serum chemistry analysis included alanine transaminase (ALT), aspartate transaminase (AST), blood urea nitrogen (BUN), and creatinine level measurements.
Alanine aminotransferase (ALT, SGPT), aspartate aminotransferase (AST, SGOT), blood urea nitrogen (BUN), and creatinine levels were examined to determine liver and kidney toxicity of Pomiferin treatments in vivo. […] Nevertheless, these changes have no physiological significance because ALT, AST and BUN levels in all mice were within normal mouse reference ranges. […]

`CC(C)=CCc1c2c(c3occ(-c4ccc(O)c(O)c4)c(=O)c3c1O)C=CC(C)(C)O2` [Pomiferin, 3′,4′,5-Trihydroxy-6″,6″-dimethyl-6-(3-methylbut-2-en-1-yl)-6″H-pyrano[2″,3″:7,8]isoflavone]: in data set [1], the “kinase inhibition effect (CrkL phosphorylation)” value is on record as “comparable results similar to the kinase inhibition effect seen with Gleevec”. Also, the median survival in the data set on BXPC3 tumor (5.0 μg/g oral, vehicle 37 days) turned out to be 43.5 days; in the data set with 4T1 breast tumor (vehicle 25 days), 38.5 days. For the same compound, the tumor growth entry is “suppressed” in the data set with BXPC3 tumor (Pomiferin administered orally) and “steady growth inhibition” with 4T1 breast tumor. The “median survival, fold longer than vehicle control” value with BXPC3 tumor (mouse, in vivo) worked out at 1.2 fold. Besides, the “damage to the liver and kidneys” value in data set [2] was “little to no damage to the liver and kidneys”.
